According to ChEMBL document CHEMBL3885861, “Open TG-GATES”:

Organism: Rattus norvegicus
Experiment: Open TG-GATES - Regimen: Single
Assay type: toxicity, organism-based, Sprague-Dawley
Set-up: regimen Single, gender Male, age 6 weeks
Details: in vivo, po, 0 mg/kg, route gavage, dose level Control; for APTT / Bas / Eos / Fbg / Hb / Ht / Lym / MCH / MCHC / MCV / Mono / Neu / PT / Plat / RBC / Ret / WBC: tissue Blood; for KIDNEY_L / KIDNEY_R / KIDNEY_TOTAL: tissue Kidney; for LIVER: tissue Liver; for A/G / ALP / ALT / AST / BUN / CRE / Ca / Cl / DBIL / GLC / IP / K / LDH / Na / PL / RALB / TBIL / TC / TG / TP / gamma-GTP: tissue Plasma

CC[C@@H](CO)NCCN[C@@H](CC)CO [ETHAMBUTOL]
TERMINAL_BW (3 h): 227 g | APTT (3 h): 21.4 s | Bas (3 h): 0% | Eos (3 h): 0.8% | Fbg (3 h): 319 mg/dL | Hb (3 h): 13.3 g/dL | Ht (3 h): 39.5% | Lym (3 h): 83.8% | MCH (3 h): 22.3 pg | MCHC (3 h): 33.7% | MCV (3 h): 66.2 fL | Mono (3 h): 2% | Neu (3 h): 12.2% | PT (3 h): 15.9 s | Plat (3 h): 118.8 x10_4/uL | RBC (3 h): 597.6 x10_4/ul | Ret (3 h): 8.3% | WBC (3 h): 97.7 x10_2/uL | KIDNEY_L (3 h): 1 g | KIDNEY_R (3 h): 1 g | KIDNEY_TOTAL (3 h): 2.1 g | LIVER (3 h): 11.4 g | A/G (3 h): 1.2 | ALP (3 h): 1599 IU/L | ALT (3 h): 42.2 IU/L | AST (3 h): 73.6 IU/L | BUN (3 h): 14.2 mg/dL | CRE (3 h): 0.2 mg/dL | Ca (3 h): 10.4 mg/dL | Cl (3 h): 106.6 meq/L | DBIL (3 h): 0 mg/dL | GLC (3 h): 192.4 mg/dL | IP (3 h): 8.7 mg/dL | K (3 h): 4.1 meq/L | LDH (3 h): 171.6 IU/L | Na (3 h): 144.2 meq/L | PL (3 h): 137.2 mg/dL | RALB (3 h): 3 g/dL | TBIL (3 h): 0.01 mg/dL | TC (3 h): 75.6 mg/dL | TG (3 h): 63.8 mg/dL | TP (3 h): 5.3 g/dL | gamma-GTP (3 h): 1.6 IU/L | TERMINAL_BW (6 h): 224 g | APTT (6 h): 22.2 s | Bas (6 h): 0% | Eos (6 h): 0.8% | Fbg (6 h): 301.2 mg/dL | Hb (6 h): 13.6 g/dL | Ht (6 h): 39.9% | Lym (6 h): 82.6% | MCH (6 h): 21.7 pg | MCHC (6 h): 34.1% | MCV (6 h): 63.8 fL | Mono (6 h): 2.4% | Neu (6 h): 13% | PT (6 h): 15.6 s | Plat (6 h): 122.5 x10_4/uL | RBC (6 h): 624.8 x10_4/ul | Ret (6 h): 7.5% | WBC (6 h): 117.8 x10_2/uL | KIDNEY_L (6 h): 1 g | KIDNEY_R (6 h): 1 g | KIDNEY_TOTAL (6 h): 2 g | LIVER (6 h): 10 g | A/G (6 h): 1.2 | ALP (6 h): 1271 IU/L | ALT (6 h): 35 IU/L | AST (6 h): 66.2 IU/L | BUN (6 h): 11.2 mg/dL | CRE (6 h): 0.2 mg/dL | Ca (6 h): 10.3 mg/dL | Cl (6 h): 105.8 meq/L | DBIL (6 h): 0 mg/dL | GLC (6 h): 200.4 mg/dL | IP (6 h): 9.2 mg/dL | K (6 h): 4.4 meq/L | LDH (6 h): 176.2 IU/L | Na (6 h): 141.8 meq/L | PL (6 h): 134.8 mg/dL | RALB (6 h): 2.9 g/dL | TBIL (6 h): 0.02 mg/dL | TC (6 h): 72 mg/dL | TG (6 h): 82.8 mg/dL | TP (6 h): 5.4 g/dL | gamma-GTP (6 h): 1.6 IU/L | TERMINAL_BW (9 h): 220 g | APTT (9 h): 22.6 s | Bas (9 h): 0% | Eos (9 h): 0.6% | Fbg (9 h): 288 mg/dL | Hb (9 h): 13.4 g/dL | Ht (9 h): 39.5% | Lym (9 h): 82.6% | MCH (9 h): 21.3 pg | MCHC (9 h): 34% | MCV (9 h): 62.7 fL | Mono (9 h): 2.4% | Neu (9 h): 13.2% | PT (9 h): 16.5 s | Plat (9 h): 116 x10_4/uL | RBC (9 h): 632 x10_4/ul | Ret (9 h): 6.9% | WBC (9 h): 93.6 x10_2/uL | KIDNEY_L (9 h): 1 g | KIDNEY_R (9 h): 1 g | KIDNEY_TOTAL (9 h): 2 g | LIVER (9 h): 9.3 g | A/G (9 h): 1.2 | ALP (9 h): 1394.2 IU/L | ALT (9 h): 37.4 IU/L | AST (9 h): 69.8 IU/L | BUN (9 h): 10.6 mg/dL | CRE (9 h): 0.2 mg/dL | Ca (9 h): 10.1 mg/dL | Cl (9 h): 107.8 meq/L | DBIL (9 h): 0.002 mg/dL | GLC (9 h): 180.2 mg/dL | IP (9 h): 9 mg/dL | K (9 h): 4.1 meq/L | LDH (9 h): 136.8 IU/L | Na (9 h): 142 meq/L | PL (9 h): 118.2 mg/dL | RALB (9 h): 3 g/dL | TBIL (9 h): 0.024 mg/dL | TC (9 h): 68.4 mg/dL | TG (9 h): 37.4 mg/dL | TP (9 h): 5.6 g/dL | gamma-GTP (9 h): 1.2 IU/L | TERMINAL_BW (24 h): 232.7 g | APTT (24 h): 22.2 s | Bas (24 h): 0% | Eos (24 h): 0.8% | Fbg (24 h): 311.8 mg/dL | Hb (24 h): 13.9 g/dL | Ht (24 h): 39.5% | Lym (24 h): 82.4% | MCH (24 h): 22.5 pg | MCHC (24 h): 35.1% | MCV (24 h): 64 fL | Mono (24 h): 2.4% | Neu (24 h): 13.4% | PT (24 h): 16.4 s | Plat (24 h): 115.4 x10_4/uL | RBC (24 h): 618.2 x10_4/ul | Ret (24 h): 6.9% | WBC (24 h): 99.5 x10_2/uL | KIDNEY_L (24 h): 1 g | KIDNEY_R (24 h): 1 g | KIDNEY_TOTAL (24 h): 2 g | LIVER (24 h): 10.8 g | A/G (24 h): 1.1 | ALP (24 h): 1625.6 IU/L | ALT (24 h): 47.6 IU/L | AST (24 h): 73 IU/L | BUN (24 h): 17.2 mg/dL | CRE (24 h): 0.2 mg/dL | Ca (24 h): 10.6 mg/dL | Cl (24 h): 106.8 meq/L | DBIL (24 h): 0 mg/dL | GLC (24 h): 199 mg/dL | IP (24 h): 8.1 mg/dL | K (24 h): 4.1 meq/L | LDH (24 h): 176.8 IU/L | Na (24 h): 142.4 meq/L | PL (24 h): 147.2 mg/dL | RALB (24 h): 3 g/dL | TBIL (24 h): 0.006 mg/dL | TC (24 h): 73.4 mg/dL | TG (24 h): 94.6 mg/dL | TP (24 h): 5.7 g/dL | gamma-GTP (24 h): 1.8 IU/L
